In PMC3748812 (Angewandte Chemie (International ed. in English), 2013):
pIC50: −log10 of the molar value.

Key:
Assay type in all cases: biochemical
[1] = target: T1, ethylbenzene dehydrogenase (EbDH) (Aromatoleum aromaticum, UniProt Q5P5I0); assay: ethylbenzene hydroxylation activity assay; conditions: native substrate; Km in text is cited from an earlier paper
[2] = target: T1, ethylbenzene dehydrogenase (EbDH); assay: inhibition of ethylbenzene-dependent activity; conditions: substrate ethylbenzene
[3] = target: T1, ethylbenzene dehydrogenase (EbDH); assay: inhibition of ethylbenzene-dependent activity, dose response; conditions: substrate ethylbenzene; preincubated with inhibitor

| pIC50 [3] | SMILES | also measured |
| --- | --- | --- |
| – | CCc1ccccc1 [ethylbenzene] | ethylbenzene hydroxylation activity assay [1]: Nonlinear plots of the remaining ethylbenzene-dependent activity of EbDH |
| – | CCn1ccnc1 [N-ethylimidazole] | pIC50 [2]: 2.66 |
| 4.00 | CCB1C=CC=CN1 [B-ethyl-1,2-azaborine] | – |
| 5.55 | CCN1BC=CC=C1 [N-ethyl-1,2-azaborine] | – |
